Test results published in US10898475B2, “Bach1 inhibitors in combination with Nrf2 activators and pharmaceutical compositions thereof” (vTv Therapeutics LLC, priority 2014, dated 2021).

System: HMOX1 in Normal Human Lung Fibroblasts (NHLF)
Assay: HMOX1 Protein Expression (immunostaining, fold induction or % positive cells over DMSO)
Details: for Hill slope of DMF dose response curves in Table 2: % Positive HMOX
Method: Normal Human Lung Fibroblasts (NHLF) obtained from Lonza were cultured in T-225 flasks using conditions recommended by the vendor (FGM-2 medium supplemented with 2% fetal bovine serum (FBS), fibroblast growth factor (hFGF-B) 0.5 mL, insulin 0.5 mL, and gentamicin/amphotericin-B 0.5 mL at 37° C. in a humidified atmosphere of 5% CO2).
For assays, cell were thawed and placed into culture in T225 flasks, grown to be 80% confluent, and harvested as described by the vendor. NHLF cells (2.5×10^4 cells per well) were plated in 384 well optilux tissue culture (BD) plates and incubated overnight in media prior to exposure to compound. Cells were incubated with DMSO or various combinations of either an Nrf2 Activator (DMF (dimethyl fumarate)/CDDO-Me) or a Bach1 Inhibitor for 16-18 hr. Cells were then fixed and permeabilized prior to incubation with HMOX1 antibody (abcam; 1:300 dilution in 1% BSA in PBS) for 1 hour. Cells were then washed and incubated with a solution of fluorescently-coupled goat anti-mouse antibody (Alexa 488 1:400 dilution Invitrogen) and Hoechst nuclear stain (1:2000; Invitrogen) in PBS containing 1% BSA for 1 hr. Immunostaining was detected using a GE InCell 2000 instrument at the following wavelengths: Hoechst Ex/Em 360/535 and Alexa 488 Ex/Em 480/535. Results were analyzed using GE InCell Analyzer software and represented as the increase fold of HMOX1 induction (Fold induction/FI) or the percentage of HMOX1 positive (% positive) cells over DMSO.

In the case of `CN(C)C(=O)CNC(=O)c1ccc2c(c1)nc(Nc1nc3ccc(C(F)(F)F)cc3s1)n2C` [HPP-C, 1-Methyl-2-(6-trifluoromethyl-benzothiazol-2-ylamino)-1H-benzimidazole-5-carboxylic acid dimethylcarbamoylmethyl-amide], the “Hill slope of DMF dose response curves in Table 2” value (from here on “Hill slope … in Table 2”) (Bach1 Inhibitor Conc. 0.019 uM) is reported as 2.00, the “Hill slope … in Table 2” value (Bach1 Inhibitor Conc. 0.039 uM) is reported as 1.80 and the “Hill slope … in Table 2” value (Bach1 Inhibitor Conc. 0.078 uM) is reported as 1.79. The “Hill slope … in Table 2” value (Bach1 Inhibitor Conc. 0.156 uM) was 0.83, the “% Cells Positive HMOX” value (Cpd. 0.019 uM, DMF 0 uM) was 3.60% and the “Fold Induction of HMOX” value (Cpd. 0.019 uM, DMF 0 uM) was 1.29 fold. For the same molecule, the “% Cells Positive HMOX” value (Cpd. 0.019 uM, DMF 0.03 uM) was 1.18%, the “Fold Induction of HMOX” value (Cpd. 0.019 uM, DMF 0.03 uM) was 1.10 fold and the “% Cells Positive HMOX” value (Cpd. 0.019 uM, DMF 0.1 uM) was 2.37%. For the same molecule, the “Fold Induction of HMOX” value (Cpd. 0.019 uM, DMF 0.1 uM) was 1.15 fold, the “% Cells Positive HMOX” value (Cpd. 0.019 uM, DMF 0.3 uM) was 6.49% and the “Fold Induction of HMOX” value (Cpd. 0.019 uM, DMF 0.3 uM) was 1.24 fold. For the same molecule, the “% Cells Positive HMOX” value (Cpd. 0.019 uM, DMF 1 uM) was 10.18%, the “Fold Induction of HMOX” value (Cpd. 0.019 uM, DMF 1 uM) was 1.68 fold and the “% Cells Positive HMOX” value (Cpd. 0.019 uM, DMF 3 uM) was 51.54%. The “Fold Induction of HMOX” value (Cpd. 0.019 uM, DMF 3 uM) was 2.86 fold, the “% Cells Positive HMOX” value (Cpd. 0.019 uM, DMF 10 uM) was 94.22% and the “Fold Induction of HMOX” value (Cpd. 0.019 uM, DMF 10 uM) was 5.75 fold. The “% Cells Positive HMOX” value (Cpd. 0.019 uM, DMF 30 uM) was 84.20%, the “Fold Induction of HMOX” value (Cpd. 0.019 uM, DMF 30 uM) was 4.65 fold and the “% Cells Positive HMOX” value (Cpd. 0.039 uM, DMF 0 uM) was 2.31%. For the same molecule, the “Fold Induction of HMOX” value (Cpd. 0.039 uM, DMF 0 uM) was 1.37 fold, the “% Cells Positive HMOX” value (Cpd. 0.039 uM, DMF 0.03 uM) was 5.74% and the “Fold Induction of HMOX” value (Cpd. 0.039 uM, DMF 0.03 uM) was 1.28 fold. For the same molecule, the “% Cells Positive HMOX” value (Cpd. 0.039 uM, DMF 0.1 uM) was 6.82%, the “Fold Induction of HMOX” value (Cpd. 0.039 uM, DMF 0.1 uM) was 1.35 fold and the “% Cells Positive HMOX” value (Cpd. 0.039 uM, DMF 0.3 uM) was 12.76%. For the same molecule, the “Fold Induction of HMOX” value (Cpd. 0.039 uM, DMF 0.3 uM) was 1.61 fold, the “% Cells Positive HMOX” value (Cpd. 0.039 uM, DMF 1 uM) was 23.54% and the “Fold Induction of HMOX” value (Cpd. 0.039 uM, DMF 1 uM) was 2.10 fold. The “% Cells Positive HMOX” value (Cpd. 0.039 uM, DMF 3 uM) was 68.03%, the “Fold Induction of HMOX” value (Cpd. 0.039 uM, DMF 3 uM) was 3.01 fold and the “% Cells Positive HMOX” value (Cpd. 0.039 uM, DMF 10 uM) was 94.66%. For the same molecule, the “Fold Induction of HMOX” value (Cpd. 0.039 uM, DMF 10 uM) was 5.13 fold, the “% Cells Positive HMOX” value (Cpd. 0.039 uM, DMF 30 uM) was 90.40% and the “Fold Induction of HMOX” value (Cpd. 0.039 uM, DMF 30 uM) was 4.90 fold. The “% Cells Positive HMOX” value (Cpd. 0.078 uM, DMF 0 uM) was 7.12%, the “Fold Induction of HMOX” value (Cpd. 0.078 uM, DMF 0 uM) was 1.59 fold and the “% Cells Positive HMOX” value (Cpd. 0.078 uM, DMF 0.03 uM) was 5.99%. For the same molecule, the “Fold Induction of HMOX” value (Cpd. 0.078 uM, DMF 0.03 uM) was 1.37 fold, the “% Cells Positive HMOX” value (Cpd. 0.078 uM, DMF 0.1 uM) was 8.24% and the “Fold Induction of HMOX” value (Cpd. 0.078 uM, DMF 0.1 uM) was 1.48 fold. For the same molecule, the “% Cells Positive HMOX” value (Cpd. 0.078 uM, DMF 0.3 uM) was 16.20%, the “Fold Induction of HMOX” value (Cpd. 0.078 uM, DMF 0.3 uM) was 1.73 fold and the “% Cells Positive HMOX” value (Cpd. 0.078 uM, DMF 1 uM) was 37.74%. For the same molecule, the “Fold Induction of HMOX” value (Cpd. 0.078 uM, DMF 1 uM) was 2.53 fold, the “% Cells Positive HMOX” value (Cpd. 0.078 uM, DMF 3 uM) was 81.81% and the “Fold Induction of HMOX” value (Cpd. 0.078 uM, DMF 3 uM) was 4.33 fold. The “% Cells Positive HMOX” value (Cpd. 0.078 uM, DMF 10 uM) was 97.16%, the “Fold Induction of HMOX” value (Cpd. 0.078 uM, DMF 10 uM) was 6.46 fold and the “% Cells Positive HMOX” value (Cpd. 0.078 uM, DMF 30 uM) was 96.15%. For the same molecule, the “Fold Induction of HMOX” value (Cpd. 0.078 uM, DMF 30 uM) was 6.18 fold, the “% Cells Positive HMOX” value (Cpd. 0.156 uM, DMF 0 uM) was 28.56% and the “Fold Induction of HMOX” value (Cpd. 0.156 uM, DMF 0 uM) was 2.66 fold. For the same molecule, the “% Cells Positive HMOX” value (Cpd. 0.156 uM, DMF 0.03 uM) was 22.08%, the “Fold Induction of HMOX” value (Cpd. 0.156 uM, DMF 0.03 uM) was 1.99 fold and the “% Cells Positive HMOX” value (Cpd. 0.156 uM, DMF 0.1 uM) was 33.12%. The “Fold Induction of HMOX” value (Cpd. 0.156 uM, DMF 0.1 uM) was 2.54 fold, the “% Cells Positive HMOX” value (Cpd. 0.156 uM, DMF 0.3 uM) was 49.95% and the “Fold Induction of HMOX” value (Cpd. 0.156 uM, DMF 0.3 uM) was 3.06 fold. The “% Cells Positive HMOX” value (Cpd. 0.156 uM, DMF 1 uM) was 66.67%, the “Fold Induction of HMOX” value (Cpd. 0.156 uM, DMF 1 uM) was 4.08 fold and the “% Cells Positive HMOX” value (Cpd. 0.156 uM, DMF 3 uM) was 88.98%. The “Fold Induction of HMOX” value (Cpd. 0.156 uM, DMF 3 uM) was 4.57 fold, the “% Cells Positive HMOX” value (Cpd. 0.156 uM, DMF 10 uM) was 100.00% and the “Fold Induction of HMOX” value (Cpd. 0.156 uM, DMF 10 uM) was 6.55 fold. For the same molecule, the “% Cells Positive HMOX” value (Cpd. 0.156 uM, DMF 30 uM) was 84.03%, the “Fold Induction of HMOX” value (Cpd. 0.156 uM, DMF 30 uM) was 5.49 fold and the “combination effect in terms of the % HMOX positive cells” value (combination with DMF at concentrations below their maximum effect (Table 2)) was “additive or greater than additive”. The “change of Hill slope of the DMF dose response curve (FIG. 5)” value (upon increasing amounts of the Bach1 Inhibitor) was “reduced”.
